According to patent US8188053B2, “Anti-inflammatory peptides” (The University of Manchester, priority 2005, dated 2012):
Entries after “also recorded” stand apart in the source; their conditions may differ.

Columns and labels:
Format in all cases: in vivo
[1] = system: allergen (oxazolone) induced Langerhans Cell (LC) migration; assay: allergen (oxazolone) induced Langerhans Cell (LC) migration after prior topical application of peptide; details: for inhibition of allergen-induced LC migration: prior topical exposure to peptide, subsequent oxazolone at the same site; for biological activity (epidermal LC migration), equimolar comparison: equimolar doses (1.38 μM): 0.5 μg hTRX, 0.04 μg 9-mer, 0.025 μg KMIKP, 0.016 μg CGPC
Description: Various tissue studies are conducted to examine the effect of each of the aforementioned polypeptides on allergen (oxazolone) induced Langerhans Cell (LC) migration. Applications are in μg unless otherwise stated.
The purpose of this experiment is to determine whether topical application of peptide 1 is able to influence the integrity of LC migration induced by subsequent exposure at the same site to oxazolone, a potent contact allergen known to cause the mobilization of LC. The results of a representative experiment are illustrated in FIG. 1.
The purpose of this experiment is to determine whether topical application of peptide 3 is able to influence the integrity of LC migration induced by subsequent exposure at the same site to oxazolone. The results of three independent experiments are illustrated in FIG. 2. […] The conclusion drawn is that topically applied peptide 3 is able to inhibit one or more biological processes required for the effective mobilization and migration of LC in response to a stimulus, in this instance the contact allergen oxazolone.

[2] = system: Langerhans Cell migration induced by TNF-α; assay: Langerhans Cell migration induced by intradermal injection of homologous TNF-α after prior topical peptide; details: prior topical exposure; intradermal (id) injection of homologous TNF-α
Text: (§1) The purpose of this experiment is to investigate whether the 9-mer peptide (CGPCKMIKP; SEQ ID NO: 9) could affect Langerhans Cell migration induced by either IL-1β or TNF-α. The results of a representative experiment are illustrated in FIG. 9. […] The interpretation is that topical administration of the 9-mer peptide is associated with a perturbation of IL-1β function.

[3] = system: Langerhans Cell migration induced by IL-1β; assay: Langerhans Cell migration provoked by intradermal administration of homologous IL-1β after prior topical peptide; details: prior topical exposure; id administration of homologous IL-1β
Text: as §1

With AGPAKMIKP [cysteine free 9-mer peptide] as the molecule, how does the “inhibition of allergen-induced LC migration” value [1] read?
Its value is “active”.

ANKEKLEATINELV [peptide 7] was tested. Which “inhibition of allergen-induced LC migration” value [1] did it give?
Its value is “does not inhibit”.

How did the “biological activity (epidermal LC migration), equimolar comparison” value (“biological activity” below) [1] turn out when CGPC [reference compound] was run?
The value was “all but the CGPC (SEQ ID NO: 22) peptide appear to exhibit biological activity”.

Which results are given for CGPCKMIKP [9-mer peptide]?
biological activity (epidermal LC migration), equimolar comparison [1]: appear to exhibit biological activity; inhibition of allergen-induced LC migration [1]: activity of the 9-mer peptide at all doses tested; also recorded: active; inhibition of allergen-induced LC migration ([1]; listed as 9-mer): active; inhibition of Langerhans Cell migration induced by TNF-α [2]: almost complete inhibition; influence on Langerhans Cell migration provoked by IL-1β [3]: without influence

For CGPCKMIKPFFHSLSEKYSN [peptide 3], which “inhibition of allergen-induced LC migration at the highest concentration tested” value ([1]; highest concentration (0.5 μg) tested, three independent experiments, oxazolone) is on record?
The value was “complete (or near complete) inhibition”.

And the “inhibition of allergen-induced LC migration” value [1]?
The value was “some indication for a dose-related inhibition; also recorded: substantial inhibition; also recorded: active”.

What about the “variation in activity between peptide synthesis batches” value ([1]; two independent preparations of peptide 3, oxazolone-induced LC migration) of the same molecule?
The value was “only a small variation in activity”.

How did the “inhibition of allergen-induced LC migration” value [1] turn out when “IPCMPKCKG [scrambled 9-mer, reference compound]” was run?
The value was “not biologically active”.

For KMIKP, which “biological activity” value [1] is on record?
Its value is “appear to exhibit biological activity”.

With KMIMP as the molecule, how does the “inhibition of allergen-induced LC migration” value [1] read?
The value was “active”.

How did the “inhibition of allergen-induced LC migration” value [1] turn out when SATYCGPCKMIKP [peptide RV-1] was run?
The value was “does inhibit; also recorded: active”.

For VKQIESKTAFQEALDAAGDK [peptide 1], which “inhibition of allergen-induced LC migration” value [1] is on record?
Its value is “does not inhibit”.

B1: hTRX: Recombinant human thioredoxin (SEQ ID NO. 14), from which the peptides of the invention are derived (protein, listed as Homo sapiens)
chain: MVKQIESKTAFQEALDAAGDKLVVVDFSATWCGPCKMIKPFFHSLSEKYSNVIFLEVDVDDCQDVASECEVKCMPTFQFFKKGQKVGEFSGANKEKLEATINELV
How did the “biological activity” value [1] turn out when B1 was run?
Its value is “appear to exhibit biological activity”.
